ChEMBL document CHEMBL1201862, “PubChem BioAssay data set” (2004)
Calls of active or inactive are those of the source.

What was measured:
[1] = biological target: Ras and Rab interactor 1/Tyrosine-protein kinase ABL1 (Homo sapiens, UniProt P00519+Q13671); assay type: functional;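 also: biochemical TR-FRET dose-response test measuring inhibition of binding between Rin1 and Abl proteins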
Prothrombin = Prothrombin (Homo sapiens, UniProt P00734); assay: Thrombin 1536 HTS Dose Response Confirmation. [Related pubchem assays: 1046 (Thrombin 1536 HTS; hits were confirmed in this assay)]; assay type: functional
[2] = biological target: T1, Microphthalmia-associated transcription factor (Homo sapiens, UniProt O75030); assay: reducers of TRPM1 reporter luminescence, concentration series – cell-based, SK-MEL-5, cherry-picked, set 3, MITF inhibitor project, dose response (AID 493073); assay type: functional;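 also: SK-MEL-5 melanoma cells with luciferase driven by the MITF target TRPM1 promoter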
T1 sequence (O75030 whole entry): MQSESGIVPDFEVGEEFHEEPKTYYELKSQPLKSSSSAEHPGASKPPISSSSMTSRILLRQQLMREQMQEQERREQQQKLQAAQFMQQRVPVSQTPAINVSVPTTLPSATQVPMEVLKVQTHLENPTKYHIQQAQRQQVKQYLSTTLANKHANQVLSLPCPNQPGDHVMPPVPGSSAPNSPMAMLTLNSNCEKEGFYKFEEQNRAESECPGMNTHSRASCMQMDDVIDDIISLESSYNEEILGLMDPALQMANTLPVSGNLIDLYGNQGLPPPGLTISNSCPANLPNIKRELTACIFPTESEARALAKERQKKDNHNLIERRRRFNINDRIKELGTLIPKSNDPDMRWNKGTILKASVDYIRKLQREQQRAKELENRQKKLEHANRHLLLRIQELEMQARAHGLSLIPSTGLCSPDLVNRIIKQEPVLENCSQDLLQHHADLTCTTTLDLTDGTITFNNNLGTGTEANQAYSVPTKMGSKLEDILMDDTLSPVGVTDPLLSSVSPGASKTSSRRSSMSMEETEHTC

H9c2 = assay: cells; assay type: functional, cell-based; conditions: Rattus norvegicus, H9c2, Myocardium;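 also: confirmatory concentration-response retest of ultra-high-throughput screening hits for modulation of myocardial damage; cell death induced by hydrogen peroxide oxidative stress; compound pretreatment for 60 min then peroxide exposure for 2 h; potency is for protecting the cells against peroxide damage rather than for killing them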
[3] = NIH3T3 cell viability loss – ATP luminescence, mouse fibroblasts, counter-screen, dose response (AID 2010); assay type: functional, cell-based;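 also: cells exposed to compound for about 90 hours before reading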
BJ [4] = assay: BJ-TERT-LT-ST fibroblast viability loss – cell-based, RAS-independent, luminescence, dose response (AID 1935); assay type: functional; conditions: Homo sapiens;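 also: BJ fibroblasts immortalized with TERT plus LT and ST oncogenes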
BJ [5] = assay: cells; assay type: functional, cell-based; conditions: Homo sapiens
[6] = Trypanosoma cruzi growth suppression in host cells – NIH3T3 host cells, beta-gal luminescence, confirmation (AID 2044); assay type: functional, cell-based;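 also: intracellular parasites grown in NIH/3T3 mouse fibroblasts as host cells; luminescent beta-galactosidase reporter signal from transgenic T. cruzi replicating inside host cells; inhibitors lower the luminescence signal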
[7] = biological target: T2, Replicative DNA helicase DnaB (Mycobacterium tuberculosis, UniProt P9WMR3); assay: DnaB intein splicing inhibitors, dose response, biochemical, cell-free fluorescence (AID 449749); assay type: functional
T2 sequence (P9WMR3 whole entry): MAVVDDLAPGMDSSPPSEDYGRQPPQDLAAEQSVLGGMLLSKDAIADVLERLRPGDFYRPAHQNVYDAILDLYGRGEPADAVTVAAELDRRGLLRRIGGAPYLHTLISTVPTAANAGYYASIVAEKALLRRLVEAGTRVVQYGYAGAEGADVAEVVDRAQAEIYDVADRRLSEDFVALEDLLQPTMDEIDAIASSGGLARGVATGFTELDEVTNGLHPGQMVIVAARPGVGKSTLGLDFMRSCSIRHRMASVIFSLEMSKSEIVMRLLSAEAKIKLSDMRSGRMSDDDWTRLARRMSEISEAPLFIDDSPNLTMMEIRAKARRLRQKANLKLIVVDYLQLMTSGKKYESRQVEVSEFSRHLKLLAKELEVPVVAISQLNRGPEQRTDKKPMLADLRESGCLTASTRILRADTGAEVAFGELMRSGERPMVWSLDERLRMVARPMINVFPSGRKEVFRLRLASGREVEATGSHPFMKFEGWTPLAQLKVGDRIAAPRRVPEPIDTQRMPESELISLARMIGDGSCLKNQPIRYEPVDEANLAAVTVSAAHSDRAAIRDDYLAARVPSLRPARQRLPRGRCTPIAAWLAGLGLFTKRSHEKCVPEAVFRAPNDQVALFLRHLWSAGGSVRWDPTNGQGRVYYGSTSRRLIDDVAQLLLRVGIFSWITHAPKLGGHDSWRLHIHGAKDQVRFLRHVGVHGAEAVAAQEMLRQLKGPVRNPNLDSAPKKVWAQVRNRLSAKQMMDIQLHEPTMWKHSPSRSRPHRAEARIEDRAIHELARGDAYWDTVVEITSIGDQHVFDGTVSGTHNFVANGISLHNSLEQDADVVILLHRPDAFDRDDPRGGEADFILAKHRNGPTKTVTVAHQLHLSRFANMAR

Protein RecA = biological target: T3, Protein RecA (Mycobacterium tuberculosis, UniProt P9WHJ3); assay: Fluorescence Cell-Free Homogeneous Dose Retest to Identify Inhibitors of RecA-Intein Splicing Activity. [Related pubchem assays (depositor defined):AID2097, AID2223, AID489010, AID492950]; assay type: functional
T3 sequence (P9WHJ3 whole entry): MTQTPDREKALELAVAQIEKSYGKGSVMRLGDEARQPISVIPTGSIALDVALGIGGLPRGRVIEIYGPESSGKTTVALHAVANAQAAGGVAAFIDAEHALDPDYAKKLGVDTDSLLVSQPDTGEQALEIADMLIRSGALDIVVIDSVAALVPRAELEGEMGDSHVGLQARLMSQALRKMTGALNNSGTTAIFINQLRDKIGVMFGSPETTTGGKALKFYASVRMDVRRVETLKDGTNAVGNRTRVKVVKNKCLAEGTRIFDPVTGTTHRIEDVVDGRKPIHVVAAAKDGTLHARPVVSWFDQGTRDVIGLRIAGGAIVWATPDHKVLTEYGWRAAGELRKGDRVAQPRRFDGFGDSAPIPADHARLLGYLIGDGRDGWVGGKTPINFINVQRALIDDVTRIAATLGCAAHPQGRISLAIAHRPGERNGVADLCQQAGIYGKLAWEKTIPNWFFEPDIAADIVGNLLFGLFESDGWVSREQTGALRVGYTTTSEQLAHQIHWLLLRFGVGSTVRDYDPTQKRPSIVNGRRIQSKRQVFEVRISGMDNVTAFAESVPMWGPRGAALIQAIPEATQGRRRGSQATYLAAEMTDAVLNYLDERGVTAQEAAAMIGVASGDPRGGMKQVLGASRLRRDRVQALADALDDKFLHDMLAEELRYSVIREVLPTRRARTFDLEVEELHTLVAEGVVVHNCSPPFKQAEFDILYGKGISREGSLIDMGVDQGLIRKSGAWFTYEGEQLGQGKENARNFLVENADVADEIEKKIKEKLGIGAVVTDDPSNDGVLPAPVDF

[8] = DRD fibroblast viability loss – cell-based, non-viral oncogenic, luminescence, dose response (AID 1934); assay type: functional; conditions: Homo sapiens
Vero [9] = assay: cells; assay type: functional, cell-based; conditions: Chlorocebus sabaeus
Vero [10] = assay: cells; assay type: functional; conditions: Chlorocebus sabaeus
BJ [11] = assay: BJ-TERT fibroblast viability loss – cell-based, RAS-independent, luminescence, dose response (AID 1933); assay type: functional; conditions: Homo sapiens
BJ [12] = assay: growth inhibition of engineered Ras-driven BJ cells – cell-based, alamar blue fluorescence, cherrypicked samples, dose response (AID 2631); assay type: functional; conditions: Homo sapiens;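 also: confirmatory dose-response assay in RAS-dependent BJ fibroblasts engineered with TERT, LT and ST, with cytotoxicity read by fluorescence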
[13] = Luminescence Cell-Based Dose Retest to Confirm Inhibitors of Cancer Stem Cells. [Related pubchem assays (depositor defined):AID2717, AID2721]; assay type: functional; conditions: Homo sapiens
Paired box protein Pax-8 = Paired box protein Pax-8 (Homo sapiens, UniProt Q06710); assay: PAX8 transcriptional activity inhibition in RMG-I – RMG-I cells, luciferase, cherry-pick, dose response (AID 687027); assay type: functional, cell-based;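 also: luciferase reporter driven by Pax8 target thyroperoxidase promoter measured by SteadyGlo luminescence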
[14] = biological target: T4, Ubiquitin-conjugating enzyme E2 N (Homo sapiens, UniProt P61088); assay type: functional
T4 sequence (P61088 whole entry): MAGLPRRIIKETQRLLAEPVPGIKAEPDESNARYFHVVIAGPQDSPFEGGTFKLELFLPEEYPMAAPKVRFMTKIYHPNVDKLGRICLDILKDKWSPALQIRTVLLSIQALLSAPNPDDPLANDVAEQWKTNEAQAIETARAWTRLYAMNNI

[15] = biological target: T4, Ubiquitin-conjugating enzyme E2 N; assay type: functional; remark: listed apart in the source
[16] = biological target: T5, Heat shock factor protein 1 (Mus musculus, UniProt P38532); assay: enhancement of HSF1-driven luciferase signal – cell-based, NIH3T3, luminescence, dose retest, confirmation (AID 435004); assay type: functional;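 also: stress induced by proteasome inhibitor MG132 added 30 min after compound; luciferase reporter driven by HSF1 response element in NIH3T3 cells; actives raise luminescence as potentiators of the MG132 stress response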
T5 sequence (P38532 whole entry): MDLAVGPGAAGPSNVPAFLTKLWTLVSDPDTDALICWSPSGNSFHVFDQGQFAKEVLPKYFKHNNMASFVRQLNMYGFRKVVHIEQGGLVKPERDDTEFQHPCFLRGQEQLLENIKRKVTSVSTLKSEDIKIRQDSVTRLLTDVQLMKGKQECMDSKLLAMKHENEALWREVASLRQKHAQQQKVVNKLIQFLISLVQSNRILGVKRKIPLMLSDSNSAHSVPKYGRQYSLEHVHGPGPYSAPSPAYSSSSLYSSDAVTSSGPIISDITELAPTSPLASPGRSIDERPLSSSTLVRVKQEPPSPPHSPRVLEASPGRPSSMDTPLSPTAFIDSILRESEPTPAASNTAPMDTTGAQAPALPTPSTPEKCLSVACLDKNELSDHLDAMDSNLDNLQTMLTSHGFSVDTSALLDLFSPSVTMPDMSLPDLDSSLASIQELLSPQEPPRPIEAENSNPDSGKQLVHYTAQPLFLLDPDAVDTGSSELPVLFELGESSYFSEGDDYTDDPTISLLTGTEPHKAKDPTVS

Bcl-2-related protein A1 = biological target: T6, Bcl-2-related protein A1 (Mus musculus, UniProt Q07440); assay type: functional;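 also: confirmatory dose–response counterscreen on Bfl-1, used to check hits from a UBC13 polyubiquitin inhibitor campaign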
T6 sequence (Q07440 whole entry): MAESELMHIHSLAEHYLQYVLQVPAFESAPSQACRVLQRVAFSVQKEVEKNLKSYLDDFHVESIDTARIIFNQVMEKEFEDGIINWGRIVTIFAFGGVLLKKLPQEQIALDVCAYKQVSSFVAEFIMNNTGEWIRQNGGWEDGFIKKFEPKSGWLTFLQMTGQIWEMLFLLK

Sequence of Ras and Rab interactor 1/Tyrosine-protein kinase ABL1 (P00519 whole entry): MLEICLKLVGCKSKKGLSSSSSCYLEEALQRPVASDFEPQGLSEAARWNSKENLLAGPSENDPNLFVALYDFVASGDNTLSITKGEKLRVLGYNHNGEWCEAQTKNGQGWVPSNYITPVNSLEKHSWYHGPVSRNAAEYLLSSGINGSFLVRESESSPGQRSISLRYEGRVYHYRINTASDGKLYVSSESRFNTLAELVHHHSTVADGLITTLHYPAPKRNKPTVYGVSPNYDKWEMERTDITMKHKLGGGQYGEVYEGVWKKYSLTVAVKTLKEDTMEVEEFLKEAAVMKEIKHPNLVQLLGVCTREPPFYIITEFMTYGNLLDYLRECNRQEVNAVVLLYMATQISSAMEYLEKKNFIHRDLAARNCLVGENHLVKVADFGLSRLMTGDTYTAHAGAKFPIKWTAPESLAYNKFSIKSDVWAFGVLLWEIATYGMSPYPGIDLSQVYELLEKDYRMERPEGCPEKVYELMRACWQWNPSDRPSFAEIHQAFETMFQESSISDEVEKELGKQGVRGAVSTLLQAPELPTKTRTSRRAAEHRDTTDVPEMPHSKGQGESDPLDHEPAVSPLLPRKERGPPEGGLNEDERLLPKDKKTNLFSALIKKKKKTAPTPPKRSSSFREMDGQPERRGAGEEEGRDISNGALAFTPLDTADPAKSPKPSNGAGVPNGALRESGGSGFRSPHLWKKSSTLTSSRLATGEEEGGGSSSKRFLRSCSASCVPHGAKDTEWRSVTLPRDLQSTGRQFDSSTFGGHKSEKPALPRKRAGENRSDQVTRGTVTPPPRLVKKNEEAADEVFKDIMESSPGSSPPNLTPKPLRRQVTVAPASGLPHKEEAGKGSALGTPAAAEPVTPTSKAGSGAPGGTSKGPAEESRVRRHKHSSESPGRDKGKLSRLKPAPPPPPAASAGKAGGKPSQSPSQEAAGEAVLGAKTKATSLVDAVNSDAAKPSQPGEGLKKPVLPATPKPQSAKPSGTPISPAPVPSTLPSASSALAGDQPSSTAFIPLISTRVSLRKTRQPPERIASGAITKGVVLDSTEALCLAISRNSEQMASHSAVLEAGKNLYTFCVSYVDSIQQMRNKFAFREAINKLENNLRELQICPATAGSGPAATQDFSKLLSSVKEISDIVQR
Sequence of Ras and Rab interactor 1/Tyrosine-protein kinase ABL1 (Q13671 whole entry): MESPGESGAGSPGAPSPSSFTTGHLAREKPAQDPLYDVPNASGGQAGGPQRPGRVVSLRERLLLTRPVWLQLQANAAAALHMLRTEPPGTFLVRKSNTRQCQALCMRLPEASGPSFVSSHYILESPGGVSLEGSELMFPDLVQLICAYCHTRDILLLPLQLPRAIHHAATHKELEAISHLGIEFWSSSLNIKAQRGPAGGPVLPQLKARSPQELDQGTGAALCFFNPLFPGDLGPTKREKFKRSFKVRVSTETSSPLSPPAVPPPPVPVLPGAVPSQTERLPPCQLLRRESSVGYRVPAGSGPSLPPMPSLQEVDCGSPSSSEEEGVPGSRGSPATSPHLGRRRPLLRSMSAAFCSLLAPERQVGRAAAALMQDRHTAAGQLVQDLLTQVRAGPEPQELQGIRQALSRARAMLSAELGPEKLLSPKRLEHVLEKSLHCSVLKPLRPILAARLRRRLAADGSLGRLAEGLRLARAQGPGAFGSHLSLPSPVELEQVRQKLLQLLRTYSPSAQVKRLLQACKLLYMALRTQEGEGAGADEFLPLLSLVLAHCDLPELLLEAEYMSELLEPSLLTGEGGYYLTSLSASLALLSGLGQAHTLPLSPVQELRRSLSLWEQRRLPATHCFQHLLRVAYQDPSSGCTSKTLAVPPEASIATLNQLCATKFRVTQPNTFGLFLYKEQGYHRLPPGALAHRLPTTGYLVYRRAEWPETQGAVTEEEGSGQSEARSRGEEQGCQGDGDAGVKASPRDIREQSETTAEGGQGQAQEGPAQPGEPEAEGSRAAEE
Sequence of Paired box protein Pax-8 (Q06710 whole entry): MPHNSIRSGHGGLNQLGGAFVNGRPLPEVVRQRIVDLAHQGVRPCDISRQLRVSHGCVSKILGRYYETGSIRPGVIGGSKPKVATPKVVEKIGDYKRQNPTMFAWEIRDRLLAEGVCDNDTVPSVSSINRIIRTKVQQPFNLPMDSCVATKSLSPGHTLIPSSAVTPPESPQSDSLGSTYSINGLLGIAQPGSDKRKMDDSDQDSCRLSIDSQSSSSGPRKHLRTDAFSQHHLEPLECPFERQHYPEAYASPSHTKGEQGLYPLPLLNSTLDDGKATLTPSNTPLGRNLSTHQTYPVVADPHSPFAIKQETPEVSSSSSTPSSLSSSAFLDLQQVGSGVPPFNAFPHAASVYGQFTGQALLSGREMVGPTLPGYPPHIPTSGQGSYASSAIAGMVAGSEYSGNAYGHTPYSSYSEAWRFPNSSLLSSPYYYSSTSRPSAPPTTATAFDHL

SMILES: COC(=O)c1ccc(CSc2nnc(-c3c[nH]c4ccccc34)n2C)o1
- IC50 [1]: 13.8 µM (inactive)

SMILES: CCOC(=O)c1c(C)n(C(=O)c2ccco2)c(=O)n1C(=O)c1ccco1
- IC50 [1]: 11 µM (inactive)
- IC50 (Prothrombin): 0.533 µM (active)

SMILES: NNC(=O)c1cc2ccccc2cc1O
- AC50 [2]: 24 µM (active)
- IC50 (H9c2): > 79 µM (inactive)

SMILES: COc1ccc(C2CC(c3cccs3)=NN2C(=O)CCl)cc1OC (centres undefined)
- EC50 [3]: 2.64 µM (active)
- EC50 (BJ [4]): 6.05 µM (inconclusive)
- EC50 (BJ [5]): 6.92 µM (active)
- EC50 [6]: 2.21 µM (active)
- AC50 [7]: 8.43 µM (active)
- EC50 (Protein RecA): 1.41 µM (active)
- EC50 [8]: 5.26 µM (inconclusive)
- IC50 (Vero [9]): > 25 µM (active)
- CC50 (Vero [10]): 3.51 µM (active)
- EC50 (BJ [11]): 0.834 µM (active)

SMILES: O=[N+]([O-])c1cccc(/C(O)=C(/C([S-])=Nc2cccc3ccccc23)[n+]2ccccc2)c1
- IC50 (Vero [9]): > 25 µM (active)

SMILES: COc1ccc(F)cc1CN1CCN(C(=O)CCC(=O)Nc2nnc(CC(C)C)s2)CC1
- EC50 (BJ [4]): > 150 µM (inconclusive)
- EC50 (BJ [5]): > 150 µM (not active)
- EC50 [8]: > 150 µM (inconclusive)
- EC50 (BJ [11]): > 150 µM (not active)
- EC50 (BJ [12]): > 133 µM (inactive)

SMILES: CCCCSc1cc(O)nc(N)n1
- IC50 [1]: 22.2 µM (inactive)

SMILES: O=C(Nc1ccccc1)NN(C(=O)CCl)c1ccccc1
- AC50 [7]: 13.7 µM (active)
- EC50 (Protein RecA): 0.861 µM (active)
- AC50 [13]: 3.11 µM (active)
- AC50 [2]: 8.5 µM (active)
- AC50 (Paired box protein Pax-8): 4.57 µM (active)

SMILES: Cc1cccc(NC(=S)N=Nc2c(O)[nH]c3ccccc23)c1
- EC50 [3]: 4.49 µM (active)
- EC50 [6]: 1.53 µM (active)
- IC50 [14]: 15 µM (active)
- IC50 [15]: 0.594 µM (active)
- EC50 [16]: 8.45 µM (active)
- IC50 (Bcl-2-related protein A1): > 20 µM (inactive)

SMILES: Cc1ccc(C(=O)N2CC(C)CC(C)C2)cc1NC1=NC2CS(=O)(=O)CC2S1 (centres undefined)
- IC50 [1]: 14.3 µM (inactive)
